Assay results from PubChem BioAssay (NCI).
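Dose response: 5 concentrations. Exposure: 48 h. Format: 96-well plates. Endpoint: linear interpolation; highest concentration if not reached. GI50 = concentration required for 50% inhibition of growth. Definition used: TGI = concentration required for complete inhibition of growth.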

Assays:
Assay in all cases: growth of human tumour cells (NCI), 48 h; in the data active means GI50 below about 0.43 µM; inactive means the rest
786-0 renal = test system: 786-0 renal
A498 renal = test system: A498 renal
A549 NSCLC = test system: A549 NSCLC
ACHN renal = test system: ACHN renal
BT-549 breast = test system: BT-549 breast
CAKI-1 renal = test system: CAKI-1 renal
CCRF-CEM leukemia = test system: CCRF-CEM leukemia
COLO 205 colon = test system: COLO 205 colon
DU-145 prostate = test system: DU-145 prostate
EKVX NSCLC = test system: EKVX NSCLC
HCC-2998 colon = test system: HCC-2998 colon
HCT-116 colon = test system: HCT-116 colon
HCT-15 colon = test system: HCT-15 colon
HL-60(TB) leukemia = test system: HL-60(TB) leukemia
HOP-62 NSCLC = test system: HOP-62 NSCLC
HOP-92 NSCLC = test system: HOP-92 NSCLC
HS 578T breast = test system: HS 578T breast
HT29 colon = test system: HT29 colon
IGROV1 ovarian = test system: IGROV1 ovarian
K-562 leukemia = test system: K-562 leukemia
KM12 colon = test system: KM12 colon
LOX IMVI melanoma = test system: LOX IMVI melanoma
M14 melanoma = test system: M14 melanoma
MALME-3M melanoma = test system: MALME-3M melanoma
MCF7 breast = test system: MCF7 breast
MDA-MB-231 breast = test system: MDA-MB-231 breast
MDA-MB-435 = test system: MDA-MB-435
MOLT-4 leukemia = test system: MOLT-4 leukemia
NCI-H226 lung = test system: NCI-H226 lung

O=P(O)(O)C(O)(Cn1ccnc1)P(=O)(O)O
> 77.9 µM: TGI (HCT-116 colon)
> 70 µM: TGI (786-0 renal)
> 84.8 µM: TGI (ACHN renal)
inactive: GI50 (786-0 renal) 19 µM | GI50 (A498 renal) > 62.8 µM | GI50 (A549 NSCLC) > 95.7 µM | GI50 (ACHN renal) > 46.2 µM | GI50 (BT-549 breast) > 34.4 µM | GI50 (CAKI-1 renal) > 52.9 µM | GI50 (CCRF-CEM leukemia) > 100 µM | GI50 (COLO 205 colon) > 100 µM | GI50 (DU-145 prostate) > 72.2 µM | GI50 (EKVX NSCLC) > 87.9 µM | GI50 (HCC-2998 colon) 98.2 µM | GI50 (HCT-116 colon) > 53.8 µM | GI50 (HCT-15 colon) > 100 µM | GI50 (HL-60(TB) leukemia) > 71.2 µM | GI50 (HOP-62 NSCLC) > 55 µM | GI50 (HOP-92 NSCLC) > 41.7 µM | GI50 (HS 578T breast) 4.67 µM | GI50 (HT29 colon) > 90.6 µM | GI50 (IGROV1 ovarian) 53.5 µM | GI50 (K-562 leukemia) > 100 µM | GI50 (KM12 colon) > 79.3 µM | GI50 (LOX IMVI melanoma) > 47 µM | GI50 (M14 melanoma) > 53.3 µM | GI50 (MALME-3M melanoma) > 54.1 µM | GI50 (MCF7 breast) > 86.4 µM | GI50 (MDA-MB-231 breast) > 40.6 µM | GI50 (MDA-MB-435) > 100 µM | GI50 (MOLT-4 leukemia) > 100 µM | GI50 (NCI-H226 lung) > 75 µM
> 45.5 µM: TGI (HS 578T breast)
> 57 µM: TGI (MDA-MB-231 breast)
> 100 µM: TGI (A498 renal) | TGI (A549 NSCLC) | TGI (BT-549 breast) | TGI (CAKI-1 renal) | TGI (CCRF-CEM leukemia) | TGI (COLO 205 colon) | TGI (DU-145 prostate) | TGI (EKVX NSCLC) | TGI (HCC-2998 colon) | TGI (HCT-15 colon) | TGI (HL-60(TB) leukemia) | TGI (HOP-62 NSCLC) | TGI (HOP-92 NSCLC) | TGI (HT29 colon) | TGI (IGROV1 ovarian) | TGI (K-562 leukemia) | TGI (KM12 colon) | TGI (LOX IMVI melanoma) | TGI (M14 melanoma) | TGI (MALME-3M melanoma) | TGI (MCF7 breast) | TGI (MDA-MB-435) | TGI (MOLT-4 leukemia) | TGI (NCI-H226 lung)
